Test results reported in PMC11094580 (EFSA Journal, 2024).
Where two headings read alike, the source gives them in different places.

What was measured:
Clostridium orbiscindens = conditions: ref Schoefer et al. (2003); cited from earlier work
[1] = tested on: Intestinal bacteria isolated from human faeces; conditions: 5 mg flavonoids in 50 mL broth, 2 days, anaerobic; ref Kim et al. (1998); cited from earlier work
[2] = ref Gardana et al. (2007), cited from earlier work
Wistar rats [3] = test: In vivo micronucleus assay in peripheral blood; set-up: species or system rat; conditions: positive control, 10 mg/kg bw, 48 h before sacrifice
Wistar rats [4] = test: In vivo comet assay in liver and duodenum; set-up: species or system rat; conditions: positive control 200 mg/kg bw

SMILES: C[C@@H]1O[C@@H](O[C@H]2[C@H](Oc3cc(O)c4c(c3)O[C@H](c3ccc(O)cc3)CC4=O)O[C@H](CO)[C@@H](O)[C@@H]2O)[C@H](O)[C@H](O)[C@H]1O [naringin, reference compound]
- Results: conversion by C. orbiscindens (Clostridium orbiscindens): did not convert
- Results: bacterial metabolism [1]: metabolised to naringenin at early time

SMILES: COc1ccc([C@@H]2CC(=O)c3c(O)cc(O)cc3O2)cc1O [hesperetin, reference compound]
- mean C max (plasma hesperetin) ([2]; BOJ 150 mL, 51 mg hesperetin): 43 ng/mL
- mean C max (plasma hesperetin) ([2]; BOJ 300 mL, 102 mg hesperetin): 80 ng/mL

SMILES: O=P1(N(CCCl)CCCl)NCCCO1 (stereo not shown) [CPA, cyclophosphamide, reference compound]
- % MNPCE frequency (Wistar rats [3]): 0.93 ± 0.16%

SMILES: CCOS(C)(=O)=O [EMS, ethyl methanesulfonate]
- % tail intensity (Wistar rats [4]; duodenum): 19.67%
- % tail intensity (Wistar rats [4]; liver): 18.30%
